Paper PMC6009872, “Carbonic anhydrases from Trypanosoma cruzi and Leishmania donovani chagasi are inhibited by benzoxaboroles” (Journal of Enzyme Inhibition and Medicinal Chemistry, 2017)

What was measured:
TcCA = biological target: T1, TcCA (Trypanosoma cruzi, UniProt Q4CVY4); test: stopped-flow CO2 hydrase assay; assay type: biochemical; settings: 20 mM Hepes pH 7.5, 20 mM Na2SO4, CO2 1.7-17 mM, 15 min preincubation at room temperature
T1 construct: gene Tc00.1047053509597.20
T1 sequence (Q4CVY4 39-638): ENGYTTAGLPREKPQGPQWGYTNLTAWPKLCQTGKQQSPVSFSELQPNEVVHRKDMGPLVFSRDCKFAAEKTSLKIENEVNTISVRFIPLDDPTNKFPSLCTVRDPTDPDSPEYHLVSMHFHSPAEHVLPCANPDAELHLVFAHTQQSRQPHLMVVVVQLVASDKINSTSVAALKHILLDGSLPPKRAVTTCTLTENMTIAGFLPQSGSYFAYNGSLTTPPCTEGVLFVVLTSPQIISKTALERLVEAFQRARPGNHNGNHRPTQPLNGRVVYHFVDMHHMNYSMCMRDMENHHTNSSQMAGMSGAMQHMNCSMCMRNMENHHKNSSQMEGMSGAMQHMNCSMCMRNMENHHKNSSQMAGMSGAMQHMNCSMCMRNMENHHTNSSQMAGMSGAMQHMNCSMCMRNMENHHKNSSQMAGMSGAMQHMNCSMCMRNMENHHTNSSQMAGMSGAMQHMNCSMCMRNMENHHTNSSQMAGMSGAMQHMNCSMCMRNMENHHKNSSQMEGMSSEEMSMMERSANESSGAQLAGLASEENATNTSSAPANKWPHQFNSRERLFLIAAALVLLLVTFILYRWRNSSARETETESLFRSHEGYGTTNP

LdcCA = biological target: T2, LdcCA (Leishmania infantum, UniProt A4HSV2); test: stopped-flow CO2 hydrase assay; assay type: biochemical; settings: 20 mM TRIS pH 8.3, 20 mM Na2SO4, CO2 1.7-17 mM, 15 min preincubation at room temperature
T2 construct: gene LINJ_06_0630; organism given as Leishmania donovani chagasi
T2 sequence (A4HSV2 1-306): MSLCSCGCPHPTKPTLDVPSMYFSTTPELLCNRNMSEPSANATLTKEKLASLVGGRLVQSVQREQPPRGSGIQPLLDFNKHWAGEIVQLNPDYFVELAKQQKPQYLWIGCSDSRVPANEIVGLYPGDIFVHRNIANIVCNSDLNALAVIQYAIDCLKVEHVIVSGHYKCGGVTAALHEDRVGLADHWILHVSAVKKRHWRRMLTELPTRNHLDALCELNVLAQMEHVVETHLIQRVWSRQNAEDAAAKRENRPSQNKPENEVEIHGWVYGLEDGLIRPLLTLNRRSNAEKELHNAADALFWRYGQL

Work on `OB1OCc2cc(F)ccc21` [Tavaborole, reference compound] yielded a Ki (TcCA) of 60.5 µM and a Ki (LdcCA) of 2.54 µM.

`OB1OCc2ccccc21` [compound 1, benzoxaborole 1] gave a Ki (TcCA) of over 100 µM and a Ki (LdcCA) of 3.79 µM.

Work on `O=[N+]([O-])c1ccc2c(c1)B(O)OC2` [compound 2, 6-nitro benzoxaborole 2] yielded a Ki (TcCA) of over 100 µM and a Ki (LdcCA) of 4.01 µM.

In the case of `Nc1ccc2c(c1)B(O)OC2` [compound 3, 6-amino benzoxaborole 3], the Ki (TcCA) was over 100 µM and the Ki (LdcCA) was 2.37 µM.

With `O=C(NCc1ccccc1)Nc1ccc2c(c1)B(O)OC2` [compound 4, 4] the Ki (TcCA) was 75.1 µM and the Ki (LdcCA) was 2.04 µM.

With `Cc1cc(Cl)cc(CNC(=O)Nc2ccc3c(c2)B(O)OC3)c1` [compound 5, 5] the Ki (TcCA) was 87.6 µM and the Ki (LdcCA) was 4.3 µM.

`O=C(Nc1ccccc1)Nc1ccc2c(c1)B(O)OC2` [compound 6, phenylureido benzoxaborole 6] showed a Ki (TcCA) of 32.3 µM and a Ki (LdcCA) of 0.74 µM.

`O=C(Nc1ccc(Cl)cc1)Nc1ccc2c(c1)B(O)OC2` [compound 7, 7] gave a Ki (TcCA) of 37.8 µM and a Ki (LdcCA) of 0.62 µM.

For `O=C(NCc1ccco1)Nc1ccc2c(c1)B(O)OC2` [compound 8, 8], the Ki (TcCA) was 67.6 µM and the Ki (LdcCA) was 3.54 µM.

Compound `O=C(Nc1ccc(F)cc1)Nc1ccc2c(c1)B(O)OC2` [compound 9, 9] has a Ki (TcCA) of 24 µM and a Ki (LdcCA) of 0.78 µM.

Compound `O=C(Nc1ccc(C(F)(F)F)cc1)Nc1ccc2c(c1)B(O)OC2` [compound 10, 10] has a Ki (TcCA) of 60.7 µM and a Ki (LdcCA) of 2.59 µM.

`O=C(Nc1ccc2c(c1)B(O)OC2)Nc1c(Cl)cc(Cl)cc1Cl` [compound 11, 11] gave a Ki (TcCA) of 69.5 µM and a Ki (LdcCA) of 3.85 µM.

For `COc1ccc(C)cc1NC(=O)Nc1ccc2c(c1)B(O)OC2` [compound 12, 12], the Ki (TcCA) was 38.6 µM and the Ki (LdcCA) was 0.67 µM.

`CC(=O)c1ccc(NC(=O)Nc2ccc3c(c2)B(O)OC3)cc1` [compound 13, 13] was tested, and the Ki (TcCA) was 33.6 µM and the Ki (LdcCA) was 0.48 µM.

With `OB1OCc2ccc(NC(=S)NCCc3ccccc3)cc21` [compound 14, 14] the Ki (TcCA) was 72.8 µM and the Ki (LdcCA) was 3.2 µM.

With `Cc1ccc(NC(=S)Nc2ccc3c(c2)B(O)OC3)cc1` [compound 15, 15] the Ki (TcCA) was 32.5 µM and the Ki (LdcCA) was 0.67 µM.

For `OB1OCc2ccc(NC(=S)Nc3ccc4ccccc4c3)cc21` [compound 16, 16], the Ki (TcCA) was 58.8 µM and the Ki (LdcCA) was 3.06 µM.

`COc1ccc(NC(=S)Nc2ccc3c(c2)B(O)OC3)cc1` [compound 17, 17] was tested, and the Ki (TcCA) was 12.6 µM and the Ki (LdcCA) was 0.59 µM.

`O=[N+]([O-])c1ccc(NC(=S)Nc2ccc3c(c2)B(O)OC3)cc1` [compound 18, 18] was tested, and the Ki (TcCA) was 46.8 µM and the Ki (LdcCA) was 0.91 µM.

`OB1OCc2ccc(NC(=S)NCc3ccccc3)cc21` [compound 19, 19] showed a Ki (TcCA) of 59.6 µM and a Ki (LdcCA) of 4.37 µM.

Work on `OB1OCc2ccc(NC(=S)Nc3ccc(F)cc3)cc21` [compound 20, 20] yielded a Ki (TcCA) of 19.7 µM and a Ki (LdcCA) of 0.66 µM.

With `OB1OCc2ccc(NC(=S)NCc3ccco3)cc21` [compound 21, 21] the Ki (TcCA) was 42.1 µM and the Ki (LdcCA) was 4.36 µM.

`OB1OCc2ccc(NC(=S)Nc3ccc(C(F)(F)F)cc3)cc21` [compound 22, 22] showed a Ki (TcCA) of 16.6 µM and a Ki (LdcCA) of 0.85 µM.

For `OB1OCc2ccc(NC(=S)Nc3ccccc3)cc21` [compound 23, phenylthioureido benzoxaborole 23], the Ki (TcCA) was 23.4 µM and the Ki (LdcCA) was 0.65 µM.
